Source: PMC13144739, “Global analysis of cancer cell responses to USP9X inhibition” (The EMBO Journal, 2026)
Entries after “also recorded” stand apart in the source; their conditions may differ.

Legend:
[1] = test system: T1, USP9X Δβ catalytic domain; experiment: Ub-PA suicide probe assay, USP9X Δβ; type: biochemical, human; settings: 50 µM compound
T1 construct: His/SUMO (pOPIN-S vector) (N, cleaved yes); made in house; host or cells: E. coli BL21
Excerpt: An expression construct for the USP9X catalytic domain (aa 1551–1970, […]: Q93008-1), was codon optimised for bacterial expression, synthesised in gBlock format (Integrated DNA Technologies) and cloned into the pOPIN-S vector (Berrow et al, [2007]), which was digested with KpnI and HindIII using In-Fusion™ HD cloning (Takara Clontech). For SPR, constructs were ordered with a GGS linker followed by a C-terminal AviTag™ (aa sequence: […]) and were cloned as above. For the USP9X Δβ catalytic domain a deletion construct ΔE1924-K1943 and for USP9X/USP24 chimera, a construct with USP9X Y1757-A1766 replaced with the USP24 (NCBI Reference Sequence: NP_056121) aa motif […] was used. All constructs were confirmed by Sanger sequencing (AGRF).
For inhibitor activity assays, USP9X catalytic domain (di-ubiquitin cleavage assay: 750 nM, ubiquitin-probe assays: 2.5 µM) was pre-incubated with USP9X inhibitors for 30 min at ambient temperature and subsequently mixed with di-ubiquitin (final concentration 2 µM) in assay buffer (25 mM Tris [pH 8.0], 150 mM NaCl, 10 mM DTT) at pH 8.0 or was mixed with ubiquitin-propargylamide (Ub-PA)/ubiquitin-vinyl sulfonate (Ub-VS) probes at a final concentration of 10 µM in assay buffer. […]

MiaPaca2 cells = experiment: Lattice light sheet imaging of mitosis, MiaPaca2; type: cell-based, human; settings: 15 µM
Experimental: (§1) MDA-MB-231, MiaPaca2, HMEC-1, SK-MEL-2 and UO-31 cells were seeded at 2–15 × 10^4 cells/mL in 8-well glass µ-slides (ibidi). […] SPY650-Tubulin, SPY555-DNA (both Spirochrome, Inc.), and Annexin V FITC (Sigma-Aldrich) were added at a final concentration of 1 in 1000. Cells were left to grow for 24 h before time-lapse live-cell data were acquired using a Lattice Light Sheet 7 (Zeiss). […] Aberration correction was set to a value of 170 to minimise aberrations as determined by imaging the Point Spread Function using 100 nm fluorescent microspheres. Data were collected with a frame time of 10 ms and a z step of 0.4 μm with 834 frames per 290 μm by 290 μm. Individual regions were imaged in parallel across six wells of the eight-well chamber slide. Data are presented as Maximum Intensity Projections (MIPs), and these MIPs were used for all downstream analysis. Tile regions were imaged for 24 h with 10 min intervals at 37 °C, 5% CO2. Analysis was performed using the MIPs of the different full fields of cells over the 24–48 h time period. Mitosis and mitosis arrest were classified through a combination of automated image analysis and manual validation. […] Small erroneous detected spots were further removed through a manually adjusted size filter. […] The mean intensity of all tracks was then measured to determine mitosis and mitosis arrest. […]

[2] = test system: 57 human cancer cell lines; experiment: NCI-60 cancer cell panel; type: cell-based; settings: 72 h, 3 days, in five cell lines across three cancer types, read-out: cell growth inhibition
Experimental: (§2) Inhibitors were tested at 10 µM. Data shown is the mean of two technical replicates and is shown relative to the no-drug control, and relative to the time zero number of cells.

USP9X catalytic domain [3] = target: T2, USP9X catalytic domain (Homo sapiens, UniProt Q93008); experiment: Ub-PA suicide probe competition assay; type: biochemical; settings: 50 µM compound, WT catalytic domain
T2 construct: His/SUMO (pOPIN-S vector) (N, cleaved yes); made in house; host or cells: E. coli BL21
T2 sequence (Q93008 1551-1970): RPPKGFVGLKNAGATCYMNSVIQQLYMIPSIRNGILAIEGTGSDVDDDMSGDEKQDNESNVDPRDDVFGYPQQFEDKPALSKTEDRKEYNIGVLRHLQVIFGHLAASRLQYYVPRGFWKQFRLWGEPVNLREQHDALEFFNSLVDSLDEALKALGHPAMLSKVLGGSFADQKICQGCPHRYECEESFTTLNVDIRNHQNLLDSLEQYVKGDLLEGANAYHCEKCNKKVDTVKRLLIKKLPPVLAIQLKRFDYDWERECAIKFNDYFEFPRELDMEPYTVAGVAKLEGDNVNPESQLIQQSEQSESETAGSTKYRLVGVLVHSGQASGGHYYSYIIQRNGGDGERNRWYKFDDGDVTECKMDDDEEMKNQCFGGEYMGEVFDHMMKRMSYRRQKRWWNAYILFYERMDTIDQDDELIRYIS
Experimental: (§3) For inhibitor activity assays, USP9X catalytic domain (di-ubiquitin cleavage assay: 750 nM, ubiquitin-probe assays: 2.5 µM) was pre-incubated with USP9X inhibitors for 30 min at ambient temperature and subsequently mixed with di-ubiquitin (final concentration 2 µM) in assay buffer (25 mM Tris [pH 8.0], 150 mM NaCl, 10 mM DTT) at pH 8.0 or was mixed with ubiquitin-propargylamide (Ub-PA)/ubiquitin-vinyl sulfonate (Ub-VS) probes at a final concentration of 10 µM in assay buffer. For both assays, the mixture was incubated over a time course, and the reaction was stopped by mixing samples with 2× LDS sample buffer (Invitrogen) supplemented with 3% (v/v) 2-mercaptoethanol. All protein samples were run on a 4–12% Bis-Tris SDS-PAGE gradient gel (Invitrogen) for 60 min at 140 V. The gel was stained with InstantBlue® (Abcam) and imaged.

USP9X catalytic domain [4] = target: T2, USP9X catalytic domain; experiment: K48-linked di-ubiquitin cleavage assay; type: biochemical; settings: 50 µM compound
Experimental: as §3

MOLT-4 cells = experiment: NCI-60 cancer cell panel, MOLT-4; type: cell-based, human; settings: 10 µM, 3 days
Experimental: as §2

HMEC-1 cells = experiment: Lattice light sheet imaging of mitosis, HMEC-1; type: cell-based, human; settings: 15 µM, imaged 24-48 h
Experimental: as §1

UO-31 cells = experiment: IncuCyte live-cell imaging cell death (PI uptake), UO-31; type: cell-based, human
Experimental: Cells were seeded at varying densities (1000–8000 cells per well) after initial optimisation in a 96-well tissue culture-treated plate (Thermo Fisher Scientific). Cells were incubated o/n, and the next day, inhibitors and controls diluted in cell media were added to the cells to a final volume of 200 μL per well. Cell death was measured using PI (Sigma-Aldrich). Cells were imaged with four images per well every 2 h for up to 96 h using the IncuCyte live-cell analysis system (S3, Sartorius). Cell proliferation data were analysed using Microsoft Excel by normalising confluence to control conditions. For cell killing readouts, the number of PI-positive cells was normalised to the control conditions for each timepoint.

Q: What does the source list for `Cc1[nH]c2ccc(C(=O)N3CCN(S(=O)(=O)c4ccc5c(c4)OCCO5)CC3)cc2c1C` [WEHI-092]?
A: modification of USP9X Δβ with Ub-PA probe [1]: unable to be modified by the probe; apoptosis on metaphase arrest (Annexin V uptake), MiaPaca2 (MiaPaca2 cells): did not trigger apoptosis; cell division phenotype, MiaPaca2 (MiaPaca2 cells; imaged 24-48 h): significant defects in cell division; inhibition at 10 µM [2]: > 50%; modification of USP9X with Ub-PA probe (USP9X catalytic domain [3]): prevented the modification of USP9X with ubiquitin propargylamide; also recorded: unable to be modified by the probe; cleavage of K48-linked di-ubiquitin (USP9X catalytic domain [4]): inhibited cleavage of K48-linked di-ubiquitin; cell growth, MOLT-4 (MOLT-4 cells): stalling cell growth completely; cell division phenotype, HMEC-1 (HMEC-1 cells): proceeded through mitosis normally; cell killing of UO-31 cells (IncuCyte) (UO-31 cells): killed
